Test results published in ChEMBL document CHEMBL1201862, “PubChem BioAssay data set” (2004).
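Each compound was tested at five concentrations against cells in 96-well plates for 48 hours. GI50 = concentration required for 50% inhibition of growth.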 Active and inactive are the calls of the source. Rule as the data show it: active = GI50 up to about 1.1 µM and inactive = higher.

Experiments:
Assay in all cases: growth of human tumour cells (NCI), 48 h
RXF 393 = system: RXF 393
HOP-62 = system: HOP-62
NCI-H522 = system: NCI-H522
SK-MEL-28 = system: SK-MEL-28
KM12 = system: KM12
SW-620 = system: SW-620
NCI-H226 = system: NCI-H226
OVCAR-3 = system: OVCAR-3
MDA-N = system: MDA-N
SF-268 = system: SF-268
NCI-H460 = system: NCI-H460
OVCAR-8 = system: OVCAR-8
EKVX = system: EKVX
HCT-116 = system: HCT-116
CAKI-1 = system: CAKI-1
OVCAR-5 = system: OVCAR-5
MDA-MB-231 = system: MDA-MB-231
ACHN = system: ACHN
SK-MEL-5 = system: SK-MEL-5
M14 = system: M14

Measured: GI50

CC(=O)OCC1OC(OCCCOP(=O)(OCCC#N)OCC2OC(n3cnc4c(N)ncnc43)C(OC(=O)c3ccccc3)C2OC(=O)c2ccccc2)C(OC(C)=O)C(OC(C)=O)C1OC(C)=O (stereo not given)
inactive: RXF 393 > 100 µM | HOP-62 > 100 µM | NCI-H522 16.3 µM | SK-MEL-28 > 100 µM | KM12 > 100 µM | SW-620 > 100 µM | NCI-H226 > 100 µM | OVCAR-3 > 100 µM | MDA-N > 100 µM | SF-268 > 100 µM | NCI-H460 > 100 µM | OVCAR-8 > 100 µM | EKVX > 100 µM | HCT-116 > 100 µM | CAKI-1 > 100 µM | OVCAR-5 > 100 µM | MDA-MB-231 > 100 µM | ACHN > 100 µM | SK-MEL-5 > 100 µM | M14 > 100 µM

O=C(O)CSSCC(=O)O
inactive: RXF 393 > 100 µM | HOP-62 > 100 µM | NCI-H522 > 100 µM | SK-MEL-28 > 100 µM | KM12 > 100 µM | SW-620 > 100 µM | NCI-H226 > 100 µM | OVCAR-3 > 100 µM | MDA-N > 100 µM | SF-268 > 100 µM | NCI-H460 > 100 µM | OVCAR-8 > 100 µM | EKVX > 100 µM | HCT-116 > 100 µM | CAKI-1 > 100 µM | OVCAR-5 > 100 µM | MDA-MB-231 > 100 µM | ACHN > 100 µM | SK-MEL-5 > 100 µM | M14 > 100 µM

C[C@H](NC1=CC(=O)C(N[C@@H](C)[C@H](O)c2ccccc2)=CC1=O)[C@H](O)c1ccccc1
inactive: RXF 393 > 100 µM | HOP-62 > 100 µM | NCI-H522 61.8 µM | SK-MEL-28 > 100 µM | KM12 59.3 µM | SW-620 > 100 µM | NCI-H226 62.1 µM | OVCAR-3 > 100 µM | MDA-N > 100 µM | SF-268 > 100 µM | NCI-H460 63.8 µM | OVCAR-8 > 100 µM | EKVX > 100 µM | HCT-116 68.4 µM | CAKI-1 > 100 µM | OVCAR-5 > 100 µM | MDA-MB-231 76.2 µM | ACHN 96.6 µM | SK-MEL-5 49.5 µM | M14 > 100 µM

CS(=O)(=O)N1CC(CCl)c2ccc([N+](=O)[O-])cc21 (stereo not given)
inactive: RXF 393 > 100 µM | HOP-62 > 100 µM | NCI-H522 > 100 µM | SK-MEL-28 > 100 µM | KM12 > 100 µM | SW-620 > 100 µM | NCI-H226 > 100 µM | OVCAR-3 > 100 µM | MDA-N > 100 µM | SF-268 > 100 µM | NCI-H460 38.2 µM | OVCAR-8 > 100 µM | EKVX > 100 µM | HCT-116 > 100 µM | CAKI-1 > 100 µM | OVCAR-5 > 100 µM | MDA-MB-231 > 100 µM | ACHN > 100 µM | SK-MEL-5 > 100 µM | M14 > 100 µM

CN(C)CCC(=O)[C@@]1(O)CC[C@H]2[C@@H]3CC=C4C[C@@H](O)CC[C@]4(C)[C@H]3CC[C@@]21C
inactive: RXF 393 9.2 µM | HOP-62 14.2 µM | NCI-H522 11.9 µM | SK-MEL-28 17.2 µM | KM12 15.1 µM | SW-620 17.9 µM | NCI-H226 62.8 µM | OVCAR-3 9.02 µM | MDA-N 17.7 µM | SF-268 16.9 µM | NCI-H460 15.4 µM | OVCAR-8 20.2 µM | EKVX 20.7 µM | HCT-116 18 µM | CAKI-1 17.5 µM | OVCAR-5 > 61.5 µM | MDA-MB-231 18.5 µM | ACHN 16.1 µM | SK-MEL-5 29.9 µM | M14 18.2 µM
